Source: US8604218B2, “Cytoskeletal active rho kinase inhibitor compounds, composition and use” (Inspire Pharmaceuticals, Inc., priority 2006, dated 2013)

The compounds below were run against ROCK2 (Homo sapiens (Human), UniProt O75116) (assay: Rho Kinase Inhibition Assay (IMAP fluorescence polarization)). Settings: isolated enzyme, 10 μM ATP, 60 minutes at room temperature.
Assay type: biochemical
Description: Following the preincubation, 10 μM ATP was added to initiate the reaction. After 60 minutes at room temperature, Molecular Devices IMAP™ binding solution was added to bind phosphorylated substrate. After 30 minutes of incubation in the presence of the IMAP™ beads the fluorescence polarization was read and the ratio was reported as mP. IC50 results were calculated using the Prism software from Graphpad.
See Tian et al., Arch. Ophthalmol. […] Ophthalmol. Vis. […] Ophthalmol. […] Cytoskel. […] Ophthalmol. Vis. […] Ophthalmol. Vis.

Sequence of ROCK2 (O75116 11-552): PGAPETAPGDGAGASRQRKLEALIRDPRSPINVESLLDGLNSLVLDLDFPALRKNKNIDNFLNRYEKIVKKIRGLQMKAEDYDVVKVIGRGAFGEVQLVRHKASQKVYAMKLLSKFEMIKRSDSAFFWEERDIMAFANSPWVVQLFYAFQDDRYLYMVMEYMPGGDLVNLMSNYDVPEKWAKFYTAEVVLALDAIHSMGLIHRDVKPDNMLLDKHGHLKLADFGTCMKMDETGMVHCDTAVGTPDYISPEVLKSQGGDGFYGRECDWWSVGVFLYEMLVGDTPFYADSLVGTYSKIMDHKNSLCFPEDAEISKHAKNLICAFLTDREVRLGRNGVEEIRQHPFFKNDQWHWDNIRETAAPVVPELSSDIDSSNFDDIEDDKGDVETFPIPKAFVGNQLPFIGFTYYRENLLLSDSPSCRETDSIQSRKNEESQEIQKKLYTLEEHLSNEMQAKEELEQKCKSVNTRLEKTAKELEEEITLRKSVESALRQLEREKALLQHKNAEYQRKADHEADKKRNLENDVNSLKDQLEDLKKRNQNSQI

Row | IC50 | Compound
1 | 0.651 µM | OCCOc1cccc(CN2CCC(Nc3ccc4[nH]ncc4c3)C2)c1 (stereo not drawn) [Compound 1.088, 2-(3-((3-(1H-indazol-5-ylamino)pyrrolidin-1-yl)methyl)phenoxy)ethanol]
2 | 0.591 µM | CC(=O)NCCOc1cccc(CN2CCCC(Nc3ccc4[nH]ncc4c3)C2)c1 (stereo not drawn) [Compound 1.111, N-(2-(3-((3-(1H-indazol-5-ylamino)piperidin-1-yl)methyl)phenoxy)ethyl)acetamide]
3 | 1.9 µM | c1cc(N[C@@H]2CCN(Cc3ccc(SC4CC4)cc3)C2)c2ccncc2c1 [Compound 2.021, (R)-N-(1-(4-(cyclopropylthio)benzyl)pyrrolidin-3-yl)isoquinolin-5-amine]
4 | 0.162 µM | Clc1ccc(CN2CCC[C@H](Nc3ccc4[nH]ncc4c3)C2)cc1Cl [Compound 1.080, (S)-N-(1-(3,4-dichlorobenzyl)piperidin-3-yl)-1H-indazol-5-amine]
5 | 3.06 µM | CS(=O)(=O)Nc1cccc(CN2CCC[C@@H](Nc3cccc4cnccc34)C2)c1 [Compound 2.033, (R)-N-(3-((3-(isoquinolin-5-ylamino)piperidin-1-yl)methyl)phenyl)methanesulfonamide]
6 | 0.0585 µM | Fc1ccc(CN2CCC[C@H](Nc3ccc4[nH]ncc4c3)C2)cc1F [Compound 1.072, (S)-N-(1-(3,4-difluorobenzyl)piperidin-3-yl)-1H-indazol-5-amine]
7 | 0.251 µM | c1cc(C2CC2)ccc1CN1CCCC(Nc2ccc3[nH]ncc3c2)C1 (stereo not drawn) [Compound 1.020, N-(1-(4-cyclopropylbenzyl)piperidin-3-yl)-1H-indazol-5-amine]
8 | 0.194 µM | CC(C)(C)OC(=O)NCc1cccc(CN2CCCC(Nc3ccc4[nH]ncc4c3)C2)c1 (stereo not drawn) [Compound 1.057, tert-butyl 3-((3-(1H-indazol-5-ylamino)piperidin-1-yl)methyl)benzylcarbamate]
9 | 0.553 µM | c1cc(CN2CCCC(Nc3ccc4[nH]ncc4c3)C2)cc(C2CC2)c1 (stereo not drawn) [Compound 1.021, N-(1-(3-cyclopropylbenzyl)piperidin-3-yl)-1H-indazol-5-amine]
10 | 15.7 µM | c1cc(CN2CC[C@H](Nc3cccc4cnccc34)C2)cc(C2CC2)c1 [Compound 2.023, (S)-N-(1-(3-cyclopropylbenzyl)pyrrolidin-3-yl)isoquinolin-5-amine]
11 | 12.2 µM | c1cc(N2CCCC2)ccc1CN1CCCC(Nc2ccc3[nH]ncc3c2)C1 (stereo not drawn) [Compound 1.011, N-(1-(4-(pyrrolidin-1-yl)benzyl)piperidin-3-yl)-1H-indazol-5-amine]
12 | 2.8 µM | c1cn(-c2ccc(CN3CCCC(Nc4ccc5[nH]ncc5c4)C3)cc2)cn1 (stereo not drawn) [Compound 1.010]
13 | 5.33 µM | OCCOc1cccc(CN2CC[C@H](Nc3cccc4cnccc34)C2)c1 [Compound 2.032, (S)-2-(3-((3-(isoquinolin-5-ylamino)pyrrolidin-1-yl)methyl)phenoxy)ethanol]
14 | 1.94 µM | CN(C)c1ccc(CN2CCCC(Nc3ccc4[nH]ncc4c3)C2)cc1 (stereo not drawn) [Compound 1.032, N-(1-(4-(dimethylamino)benzyl)piperidin-3-yl)-1H-indazol-5-amine]
15 | 0.578 µM | CN(c1cccc(CN2CCCC(Nc3ccc4[nH]ncc4c3)C2)c1)S(C)(=O)=O (stereo not drawn) [Compound 1.121, N-(3-((3-(1H-indazol-5-ylamino)piperidin-1-yl)methyl)phenyl)-N-methylmethanesulfonamide]
16 | 2.41 µM | OCCOc1ccc(CN2CCCC(Nc3ccc4[nH]ncc4c3)C2)cc1 (stereo not drawn) [Compound 1.018, 2-(4-((3-(1H-indazol-5-ylamino)piperidin-1-yl)methyl)phenoxy)ethanol]
17 | 0.12 µM | Clc1ccc(CN2CC[C@@H](Nc3cccc4cnccc34)C2)cc1 [Compound 2.027, (R)-N-(1-(4-chlorobenzyl)pyrrolidin-3-yl)isoquinolin-5-amine]
18 | 1.75 µM | c1ccc(CN2CCCC(Nc3ccc4[nH]ncc4c3)CC2)cc1 (stereo not drawn) [Compound 1.031, N-(1-benzylazepan-4-yl)-1H-indazol-5-amine]
19 | 0.466 µM | OCCOc1cccc(CN2CC[C@H](Nc3ccc4[nH]ncc4c3)C2)c1 [Compound 1.094, (S)-2-(3-((3-(1H-indazol-5-ylamino)pyrrolidin-1-yl)methyl)phenoxy)ethanol]
20 | 0.102 µM | COc1ccc(CN2CCC[C@H](Nc3ccc4[nH]ncc4c3)C2)cc1 [Compound 1.079, (S)-N-(1-(4-methoxybenzyl)piperidin-3-yl)-1H-indazol-5-amine]
21 | 0.155 µM | Clc1ccc(CN2CCC(Nc3ccc4[nH]ncc4c3)C2)cc1Cl (stereo not drawn) [Compound 1.062, N-(1-(3,4-dichlorobenzyl)pyrrolidin-3-yl)-1H-indazol-5-amine]
22 | 0.472 µM | NC(=O)c1cccc(CN2CCCC(Nc3ccc4[nH]ncc4c3)C2)c1 (stereo not drawn) [Compound 1.055, 3-((3-(1H-indazol-5-ylamino)piperidin-1-yl)methyl)benzamide]

Row | IC50 | Compound
23 | 1.68 µM | NCCOc1cccc(CN2CCCC(Nc3ccc4[nH]ncc4c3)C2)c1 (stereo not drawn) [Compound 1.085, N-(1-(3-(2-aminoethoxy)benzyl)piperidin-3-yl)-1H-indazol-5-amine]
24 | 0.111 µM | C#Cc1ccc(CN2CCC[C@@H](Nc3ccc4[nH]ncc4c3)C2)cc1 [Compound 1.076, (R)-N-(1-(4-ethynylbenzyl)piperidin-3-yl)-1H-indazol-5-amine]
25 | 0.0304 µM | c1cc2ccc(CN3CCCC(Nc4ccc5[nH]ncc5c4)C3)cc2[nH]1 (stereo not drawn) [Compound 1.082, N-(1-((1H-indol-6-yl)methyl)piperidin-3-yl)-1H-indazol-5-amine]
26 | 3.71 µM | CC(=O)Nc1ccc(CN2CCCC(Nc3cccc4cnccc34)C2)cc1 (stereo not drawn) [Compound 2.004, N-(4-((3-(isoquinolin-5-ylamino)piperidin-1-yl)methyl)phenyl)acetamide]
27 | 11.7 µM | OCCC#Cc1ccc(CN2CCCC(Nc3ccc4[nH]ncc4c3)C2)cc1 (stereo not drawn) [Compound 1.043, 4-(4-((3-(1H-indazol-5-ylamino)piperidin-1-yl)methyl)phenyl)but-3-yn-1-ol]
28 | 3.24 µM | CS(=O)(=O)Nc1cccc(CN2CC[C@H](Nc3cccc4cnccc34)C2)c1 [Compound 2.035, (S)-N-(3-((3-(isoquinolin-5-ylamino)pyrrolidin-1-yl)methyl)phenyl)methanesulfonamide]
29 | 3.66 µM | CC(C)Cc1ccc(CN2CCCC(Nc3ccc4[nH]ncc4c3)C2)cc1 (stereo not drawn) [Compound 1.013, N-(1-(4-isobutylbenzyl)piperidin-3-yl)-1H-indazol-5-amine]
30 | 3.44 µM | CN(C)CCCOc1ccc(CN2CCC(Nc3ccc4[nH]ncc4c3)C2)cc1 (stereo not drawn) [Compound 1.007, N-(1-(4-(3-(dimethylamino)propoxy)benzyl)pyrrolidin-3-yl)-1H-indazol-5-amine]
31 | 4.4 µM | OCC#Cc1ccc(CN2CCCC(Nc3ccc4[nH]ncc4c3)C2)cc1 (stereo not drawn) [Compound 1.042, 3-(4-((3-(1H-indazol-5-ylamino)piperidin-1-yl)methyl)phenyl)prop-2-yn-1-ol]
32 | 0.358 µM | CS(=O)(=O)c1ccc(CN2CCCC(Nc3ccc4[nH]ncc4c3)C2)cc1 (stereo not drawn) [Compound 1.001, N-(1-(4-(methylsulfonyl)benzyl)piperidin-3-yl)-1H-indazol-5-amine]
33 | 4.69 µM | CCCCc1ccc(CN2CCCC(Nc3ccc4[nH]ncc4c3)C2)cc1 (stereo not drawn) [Compound 1.014, N-(1-(4-butylbenzyl)piperidin-3-yl)-1H-indazol-5-amine]
34 | 2.13 µM | c1cc(SC2CC2)ccc1CN1CCCC(Nc2ccc3[nH]ncc3c2)C1 (stereo not drawn) [Compound 1.026, N-(1-(4-(cyclopropylthio)benzyl)piperidin-3-yl)-1H-indazol-5-amine]
35 | 13.4 µM | CN(C)Cc1ccc(CN2CCCC(Nc3ccc4[nH]ncc4c3)C2)cc1 (stereo not drawn) [Compound 1.019, N-(1-(4-((dimethylamino)methyl)benzyl)piperidin-3-yl)-1H-indazol-5-amine]
36 | 1.24 µM | c1cc(NC2CCCN(Cc3ccc(C4CC4)cc3)C2)c2ccncc2c1 (stereo not drawn) [Compound 2.010, N-(1-(4-cyclopropylbenzyl)piperidin-3-yl)isoquinolin-5-amine]
37 | 8.92 µM | c1cc(N[C@H]2CCN(Cc3ccc(SC4CC4)cc3)C2)c2ccncc2c1 [Compound 2.024, (S)-N-(1-(4-(cyclopropylthio)benzyl)pyrrolidin-3-yl)isoquinolin-5-amine]
38 | 0.82 µM | c1cc(CN2CC[C@@H](Nc3cccc4cnccc34)C2)cc(C2CC2)c1 [Compound 2.020, (R)-N-(1-(3-cyclopropylbenzyl)pyrrolidin-3-yl)isoquinolin-5-amine]
39 | 1.61 µM | c1ccc(-c2ccc(CN3CCCC(Nc4ccc5[nH]ncc5c4)C3)cc2)cc1 (stereo not drawn) [Compound 1.009, N-(1-(biphenyl-4-ylmethyl)piperidin-3-yl)-1H-indazol-5-amine]
40 | 1.67 µM | Clc1ccc(CN2CCCC(Nc3cccc4cnccc34)C2)cc1Cl (stereo not drawn) [Compound 2.014, N-(1-(3,4-dichlorobenzyl)piperidin-3-yl)isoquinolin-5-amine]
41 | 14.9 µM | c1cc(NC2CCCN(Cc3ccc(SC4CC4)cc3)C2)c2ccncc2c1 (stereo not drawn) [Compound 2.012, N-(1-(4-(cyclopropylthio)benzyl)piperidin-3-yl)isoquinolin-5-amine]
42 | 0.0988 µM | COc1ccc(CN2CCCC(Nc3cccc4cnccc34)C2)cc1 (stereo not drawn) [Compound 2.001, N-(1-(4-methoxybenzyl)piperidin-3-yl)isoquinolin-5-amine]
43 | 2.03 µM | CC(C)(C)OC(=O)Cn1ccc2cc(CN3CCCC(Nc4ccc5[nH]ncc5c4)C3)ccc21 (stereo not drawn) [Compound 1.112, tert-butyl 2-(5-((3-(1H-indazol-5-ylamino)piperidin-1-yl)methyl)-1H-indol-1-yl)acetate]

Row | Compound | IC50
44 | OC[C@@H](O)COc1cccc(CN2CCC[C@@H](Nc3ccc4[nH]ncc4c3)C2)c1 [Compound 1.115, (R)-3-(3-(((R)-3-(1H-indazol-5-ylamino)piperidin-1-yl)methyl)phenoxy)propane-1,2-diol] | 0.555 µM
45 | CSc1cccc(CN2CCCC(Nc3ccc4[nH]ncc4c3)C2)c1 (stereo not drawn) [Compound 1.040, N-(1-(3-(methylthio)benzyl)piperidin-3-yl)-1H-indazol-5-amine] | 0.144 µM
